From ChEMBL document CHEMBL1268864, “Dolabranes from the Chinese Mangrove, Ceriops tagal” (2010)
Calls of active or inactive are those of the source. The rule behind the calls is not given here.

Tests used:
[1] = test system: Brontispa longissima; test: Antifeedant activity against third-instar larvae of Brontispa longissima at 1 mg/ml after 24 hrs by leaf disk method; format: functional
[2] = test system: Brontispa longissima; test: Antifeedant activity against third-instar larvae of Brontispa longissima at 0.5 mg/ml after 24 hrs by leaf disk method; format: functional
[3] = test system: Brontispa longissima; test: Antifeedant activity against third-instar larvae of Brontispa longissima at 0.1 mg/ml after 24 hrs by leaf disk method; format: functional
[4] = test system: Brontispa longissima; test: Antifeedant activity against third-instar larvae of Brontispa longissima at 1 mg/ml after 48 hrs by leaf disk method; format: functional
[5] = test system: Brontispa longissima; test: Antifeedant activity against third-instar larvae of Brontispa longissima at 0.5 mg/ml after 48 hrs by leaf disk method; format: functional
[6] = test system: Brontispa longissima; test: Antifeedant activity against third-instar larvae of Brontispa longissima at 0.1 mg/ml after 48 hrs by leaf disk method; format: functional
[7] = test system: A2058; test: Cytotoxicity against human A2058 cells by MTT assay; format: functional, cell-based
[8] = test system: G-361; test: Cytotoxicity against human G361 cells by MTT assay; format: functional, cell-based
[9] = test system: DU-145; test: Cytotoxicity against human DU145 cells by MTT assay; format: functional, cell-based
[10] = test system: MDA-MB-468; test: Cytotoxicity against human MDA-MB-468 cells by MTT assay; format: functional, cell-based
[11] = test system: MDA-MB-435; test: Cytotoxicity against human MDA-MB-435 cells by MTT assay; format: functional, cell-based

SMILES	Activity [1] [%]	Activity [2] [%]	Activity [3] [%]	Activity [4] [%]	Activity [5] [%]	Activity [6] [%]	Activity [7]	Activity [8]	Activity [9]	Activity [10]	Activity [11]
C=C1C(=O)CC[C@@H]2[C@@]3(C)CC[C@](C)(C(O)CO)C[C@@H]3CC[C@]12C (stereo partly specified) [TAGALSIN U]	52	41	14	41	31	10	inactive	inactive	inactive	inactive	inactive
C[C@]1(C(=O)CO)CC[C@@]2(C)[C@@H](CC[C@]3(C)/C(=C/O)C(=O)CC[C@H]23)C1 [TAGALSIN S]	51	45	25	47	37	36	inactive	inactive	inactive	inactive	inactive
C=C1C(=O)C=C[C@@H]2[C@@]3(C)CC[C@](C)(O)C[C@@H]3CC[C@]12C [TAGALSIN Q]	53	50	23	43	36	30	inactive	inactive	inactive	inactive	inactive
CC1=C(O)C(=O)C[C@@H]2[C@@]3(C)CC[C@](C)(O)C[C@@H]3CC[C@]12C [TAGALSIN P]	48	18	14	22	6	2	inactive	inactive	inactive	inactive	inactive
C[C@]1(C(=O)O)CC[C@@]2(C)[C@@H](CC[C@]3(C)/C(=C/O)C(=O)CC[C@H]23)C1 [TAGALSIN R]	40	37	18	28	30	7	inactive	inactive	inactive	inactive	inactive
C[C@]1(C(O)CO)CC[C@@]2(C)[C@@H](CC[C@]3(C)/C(=C/O)C(=O)CC[C@H]23)C1 (stereo partly specified) [TAGALSIN T]	-5	-11	-32	-20	-31	-48	inactive	inactive	inactive	inactive	inactive
